How the values were obtained:
GPR17 [1] = target: T1, GPR17 (Homo sapiens, UniProt Q13304); conditions: reported in WO 2005/103291; cited from earlier work
Target sequence in this assay (Q13304 whole entry, species assumed): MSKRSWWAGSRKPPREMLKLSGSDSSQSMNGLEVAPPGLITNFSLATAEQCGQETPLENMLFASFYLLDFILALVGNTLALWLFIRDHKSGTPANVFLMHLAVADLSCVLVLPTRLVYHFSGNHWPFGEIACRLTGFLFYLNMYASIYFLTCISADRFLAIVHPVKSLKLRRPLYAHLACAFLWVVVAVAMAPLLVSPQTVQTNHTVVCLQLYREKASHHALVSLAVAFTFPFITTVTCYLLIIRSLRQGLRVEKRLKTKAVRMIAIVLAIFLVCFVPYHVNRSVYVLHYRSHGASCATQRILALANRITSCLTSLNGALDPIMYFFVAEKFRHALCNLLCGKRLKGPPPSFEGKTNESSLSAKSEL

GPR17 [2] = target: T1, GPR17; assay: inhibition of forskolin-stimulated cAMP production in CHO-GPR17 cells; assay type: cell-based; parameters: expressed in transfected cells; host or cells: Flp-In T-REx CHO cells, expression induced with doxycycline; conditions: for activation of GPR17: comparison with RA-II-150, FIG. 2
Text: Two signal transduction pathways that influence the activity of the adenylyl cyclase in oppositional ways can be activated upon receptor activation. Whereas the Gs pathway stimulates the adenylyl cyclase-dependent catalysation of cAMP formation, the Gi pathway inhibits it. The detection of cAMP accumulation is based on the HTRF® technology described above. In this case a monoclonal antibody specific to cAMP was the donor fluorophore while the acceptor fluorophore d2 was fused to cAMP. The analysis of the Gi pathway was based on the direct activation of the adenylyl cyclase, for example, by forskolin. Upon activation, the Gi pathway inhibits the forskolin-dependent activation of the adenylyl cyclase, leading to decreased cAMP accumulation. The inhibition of forskolin-stimulated cAMP accumulation in 1321N1 or CHO cells was performed using the HTRF® cAMP dynamic kit (Cisbio Bioassays, BP 84175, France). Cells were resuspended in assay buffer with 1 mM 3-isobutyl-1-methylxanthine (IBMX) supplemented and dispensed in 384-well microplates at a density of 50,000 cells/well in a volume of 5 μl. After preincubation in assay buffer for 30 min, the cells were stimulated by adding 5 μl of agonist in the respective concentration of forskolin. The final concentration of forskolin was dependent on the cell line which was employed in the assay. Adenylyl cyclase was stimulated with 1 μM forskolin in 1321N1-GPR17 cells and with 10 μM forskolin in CHO-GPR17 cells, followed by incubation for 30 min at room temperature. The reaction was terminated by lysis of the cells, which results from the addition of 5 μl of d2-conjugate followed by the addition of 5 μl of […] (both supplements are diluted in conjugate and lysis buffer). The assay was incubated for 60 min at room temperature and time-resolved FRET signals were measured at an excitation wavelength of 320 nm using the Mithras LB 940 multimode reader (Berthold technologies, D-75323 Bad Wildbad). The evaluation of HTRFR data was performed following the instructions of the kit manufacturer. Data analysis was based on the fluorescence ratio emitted by labeled cAMP (665 nm) over the light emitted by the europium cryptate-labelled anti-cAMP (620 nm). Levels of cAMP were normalised to the amount of cAMP elevated by 10 μM or 1 μM forskolin alone.
Target sequence in this assay (Q13304 29-367): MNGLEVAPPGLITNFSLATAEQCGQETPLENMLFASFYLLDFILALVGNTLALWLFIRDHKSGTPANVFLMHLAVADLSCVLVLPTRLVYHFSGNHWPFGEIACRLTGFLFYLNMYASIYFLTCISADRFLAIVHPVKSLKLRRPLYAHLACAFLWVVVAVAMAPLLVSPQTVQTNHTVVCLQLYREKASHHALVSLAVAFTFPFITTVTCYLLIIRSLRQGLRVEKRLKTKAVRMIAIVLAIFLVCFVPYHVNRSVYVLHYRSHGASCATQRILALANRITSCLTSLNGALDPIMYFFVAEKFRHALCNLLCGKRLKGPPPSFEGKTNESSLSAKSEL

[3] = exposure to air and light; cited from earlier work

less potent as compared with RA-II-150 (GPR17 [2]; FIG. 2, forskolin-stimulated cAMP production) | inhibition of forskolin stimulated adenylylcyclase activity (GPR17 [2]; GPR17 CHO cells, after 5-ALA addition) | activation of GPR17 (GPR17 [2]) | Structure (SMILES) | amounts needed in the assays (GPR17 [1]) | chemical stability [3]
10.000 fold | GPR17-independent inhibition | confirm the activation | NCC(=O)CCC(=O)O [5-ALA, 5 amino levulinic acid] | three digit micromolar range | 
 |  | failed | NCc1[nH]cc(CCC(=O)O)c1CC(=O)O [PBG, porphobilinogen] | mM range | rapidly decomposes after exposure to air and light
